Tested on: C. albicans
Experiment: Screening II: Candida growth in Lactobacillus cell-free filtrate (LCF), visual turbidity scale 5 to 0
Type: cell-based, Candida albicans
Settings: acids 50 mM, salts 0.3%; 20 hours at 37° C.
Text: Clinical isolates of Candida albicans and Candida glabrata were used as test strains. These were isolated from the vagina of women with vaginal candidiasis and from healthy females. Suspensions of lactobacilli grown in dMRSs broth (MRS broth without addition of sodium acetate) were centrifuged and sterile filtered. The filtrate is henceforth called Lactobacillus Cell-free Filtrate, LCF. A specified volume was transferred to wells of a micro titre plate and was let to air dry and thereafter resuspended in sterile distilled water to a concentration three times higher and transferred to 96-wells micro titre plates. Candida was added to all vials (three isolates of C. albicans and C. glabrata, respectively, were used). The inhibition was evaluated by visual observation of turbidity and graduated by two persons using a template on a scale from five to zero. […] The plates were incubated for 20 hours at 37° C. and the candida growth in the vials was visually evaluated and graduated from five to zero. […] The inhibition was evaluated by visual observation of turbidity and graduated by two persons using a template on a scale from five to zero. […] The plates were incubated for 20 hours at 37° C. and the candida growth in the wells was visually evaluated and graduated from five to zero.

Row | SMILES | effect of acids and acid salts on the growth of C. albicans
1 | CCC(=O)[O-].[Na+] [Sodium propionate] | most extended effect
2 | CCC(=O)O [propionic acid] | most extended effect
